Earlier results, collected in US20050009793A1, “Treatment of liver disease with active vitamin D compounds” (Novacea, Inc., priority 2002, published 2005).

Conditions: in vivo

| Hypercalcemic effect compared to calcitriol | SMILES |
| --- | --- |
| reduced hypercalcemic effect | C=C1/C(=C\C=C2/CCC[C@]3(C)C([C@H](C)CC#CC(C)(C)O)=CC[C@@H]23)C[C@@H](O)C[C@@H]1O [Ro23-7553] |
| reduced hypercalcemic effect | C=C1/C(=C/C=C2\CCC[C@]3(C)C([C@H](C)CC#CC(O)(C(F)(F)F)C(F)(F)F)=CC[C@@H]23)C[C@@H](O)C[C@@H]1O [Ro24-5531] |
